Results from the supplement of paper PMC10307832.

Tests used:
Experiment in all cases: relative viability (nuclei count vs DMSO), 5 days (fraction); higher = more cells survive
[1] = compound: CN1C=C(C2=CC=CC=C21)/C=C\3/C4=C(C=CC=N4)NC3=O + CC(=O)c1c(C)c2cnc(Nc3ccc(N4CCNCC4)cn3)nc2n(C2CCCC2)c1=O [Palbociclib] (partner 0.5 µM)
How it was run: (§1)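 Relative viability was taken as the ratio of nuclei in treated wells to nuclei in vehicle wells. Lung cancer cell lines in 1536-well plates received compounds by pin tool one day after seeding, either one drug alone or a fixed anchor-drug dose plus five library-drug doses (not always all listed) in √10 steps. Nuclei were counted on 4× images after 5 days of treatment, and values are medians of duplicate plates.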

[2] = compound: CN1C=C(C2=CC=CC=C21)/C=C\3/C4=C(C=CC=N4)NC3=O + CC1(C)CCC(c2ccc(Cl)cc2)=C(CN2CCN(c3ccc(C(=O)NS(=O)(=O)c4ccc(N[C@H](CCN5CCOCC5)CSc5ccccc5)c(S(=O)(=O)C(F)(F)F)c4)cc3)CC2)C1 [Navitoclax] (partner 0.5 µM)
How it was run: as §1

[3] = compound: CN1C=C(C2=CC=CC=C21)/C=C\3/C4=C(C=CC=N4)NC3=O + COc1cc2c(Oc3ccc(NC(=O)C4(C(=O)Nc5ccc(F)cc5)CC4)cc3F)ccnc2cc1OCCCN1CCOCC1 [Foretinib] (partner 0.25 µM)
How it was run: as §1

Trametinib + Dasatinib = compound: CC(=O)Nc1cccc(-n2c(=O)n(C3CC3)c(=O)c3c(Nc4ccc(I)cc4F)n(C)c(=O)c(C)c32)c1 [Trametinib] + Cc1nc(Nc2ncc(C(=O)Nc3c(C)cccc3Cl)s2)cc(N2CCN(CCO)CC2)n1 [Dasatinib] (partner 0.075 µM)
How it was run: as §1

Cell Line | relative viability ([1]; first compound 0.02 µM) | relative viability ([1]; first compound 0.06325 µM) | relative viability ([1]; first compound 0.2 µM) | relative viability ([1]; first compound 0.6325 µM) | relative viability ([1]; first compound 2 µM) | relative viability ([2]; first compound 0.02 µM) | relative viability ([2]; first compound 0.06325 µM) | relative viability ([2]; first compound 0.2 µM) | relative viability ([2]; first compound 0.6325 µM) | relative viability ([2]; first compound 2 µM) | relative viability ([3]; first compound 0.02 µM) | relative viability ([3]; first compound 0.06325 µM) | relative viability ([3]; first compound 0.2 µM) | relative viability ([3]; first compound 0.6325 µM) | relative viability ([3]; first compound 2 µM) | relative viability (Trametinib + Dasatinib; first compound 0.0025 µM) | relative viability (Trametinib + Dasatinib; first compound 0.007906 µM) | relative viability (Trametinib + Dasatinib; first compound 0.025 µM) | relative viability (Trametinib + Dasatinib; first compound 0.07906 µM) | relative viability (Trametinib + Dasatinib; first compound 0.25 µM)
HCC-44 | 0.902 | 0.959 | 0.956 | 0.934 | 0.913 | 0.943 | 1.03 | 0.89 | 0.726 | 0.772 | – | – | – | – | – | – | – | – | – | –
RERF-LC-KJ | 0.937 | 1.07 | 0.988 | 0.963 | 1.12 | 1.03 | 0.937 | 0.707 | 0.691 | 0.51 | 0.924 | 0.938 | 0.867 | 0.859 | 0.779 | 0.7 | 0.741 | 0.794 | 0.731 | 0.554
NCI-H1975 | 0.623 | 0.361 | 0.45 | 0.442 | 0.504 | 0.955 | 1.05 | 1.07 | 0.937 | 0.94 | 0.87 | 0.918 | 0.83 | 0.697 | 0.837 | 0.28 | 0.218 | 0.15 | 0.172 | 0.123
IA-LM | – | – | – | – | – | 1.05 | 0.833 | 0.731 | 0.749 | 0.541 | 1.28 | 1.01 | 1.12 | 1.19 | 1.23 | – | – | – | – | –
LCLC-97TM1 | – | 0.156 | 0.201 | 0.203 | 0.261 | 0.322 | – | – | 0.566 | 0.36 | 0.891 | 0.793 | 0.91 | 1.03 | 0.921 | 0.816 | 0.44 | 0.381 | 0.125 | 0.171
NCI-H520 | 0.261 | 0.227 | 0.219 | 0.218 | 0.218 | 0.935 | 1.03 | 1.09 | 1.17 | 1.17 | 0.639 | 0.773 | 0.847 | 0.717 | 0.937 | 0.281 | 0.225 | 0.288 | 0.282 | 0.176
A-427 | 0.577 | 0.492 | – | 0.514 | 0.572 | 0.975 | 0.887 | – | 0.984 | 1.06 | 1.18 | 1.21 | – | 0.958 | 1.1 | 0.75 | 0.397 | 0.178 | 0.262 | 0.171
ABC-1 | 0.52 | 0.76 | 0.789 | 0.593 | 0.738 | – | – | – | – | – | 0.929 | 1.08 | 1.16 | 1.13 | 1.13 | 0.539 | 0.467 | 0.365 | 0.384 | 0.371
NCI-H460 | 0.209 | 0.153 | 0.0627 | 0.103 | 0.157 | 1.27 | 1.21 | 1.39 | – | 1.43 | 1.09 | 0.967 | 1.05 | 0.986 | 0.975 | 0.369 | 0.176 | 0.138 | 0.085 | 0.0431
NCI-H1395 | 0.567 | 0.534 | 0.581 | 0.618 | 0.581 | 1.08 | 0.967 | – | 1.09 | 1.11 | 0.889 | 0.942 | 0.864 | 0.992 | 0.868 | 0.44 | 0.662 | 0.454 | 0.378 | 0.345
EBC-1 | – | – | – | – | – | 0.37 | 0.426 | 0.384 | 0.48 | 0.498 | 0.0992 | 0.108 | 0.0997 | 0.0962 | 0.0995 | – | – | – | – | –
NCI-H23 | 0.506 | 0.408 | 0.417 | 0.499 | 0.486 | 0.558 | 0.764 | – | 0.807 | 0.931 | 0.982 | 0.977 | 1.03 | 1.03 | 1.07 | 0.544 | 0.74 | 0.293 | 0.231 | 0.172
NCI-H358 | 0.147 | 0.152 | 0.123 | 0.13 | 0.138 | – | – | – | – | – | 0.693 | 0.622 | 0.815 | 0.637 | 0.687 | 0.137 | 0.117 | 0.103 | 0.11 | 0.143
NCI-H650 | 0.385 | 0.341 | – | 0.356 | 0.391 | – | – | – | – | – | 1.05 | 0.938 | – | 1.02 | 1 | 0.573 | 0.615 | 0.541 | 0.445 | 0.356
A549 | – | – | – | – | – | 1.36 | 1.27 | 1.15 | 1.24 | 1.15 | 1.03 | 0.97 | 1.04 | 1.13 | 1.16 | – | – | – | – | –
NCI-H1563 | – | – | – | – | – | – | – | – | – | – | 1.04 | 0.897 | 0.955 | 0.943 | 0.901 | 0.466 | 0.509 | 0.467 | 0.438 | 0.464
NCI-H1703 | – | – | – | – | – | 1.06 | 1.03 | 1.01 | 0.966 | 0.998 | 0.345 | 0.354 | 0.311 | 0.347 | 0.349 | – | – | – | – | –
NCI-H1299 | – | – | – | – | – | 1.04 | 0.988 | 1.02 | 1.12 | 1.02 | 1.09 | 1.1 | 1.16 | 1.07 | 1.02 | – | – | – | – | –
NCI-H661 | 0.425 | 0.406 | 0.343 | 0.389 | 0.37 | – | – | – | – | – | 1.11 | 0.965 | 1.04 | 1.05 | 1.04 | 0.816 | 0.796 | 0.565 | 0.481 | 0.513
NCI-H522 | 1.04 | 1.01 | 1.08 | 0.874 | 1.06 | – | – | – | – | – | – | – | – | – | – | 0.892 | 0.913 | 0.665 | 0.724 | 0.671
NCI-H1648 | 0.308 | 0.305 | 0.233 | 0.285 | 0.28 | – | – | – | – | – | – | – | – | – | – | – | – | – | – | –
NCI-H1623 | – | – | – | – | – | – | – | – | – | – | 0.838 | 0.878 | 0.701 | 0.712 | 0.755 | 0.487 | 0.449 | 0.306 | 0.378 | 0.618
NCI-H596 | – | – | – | – | – | 0.957 | 0.925 | 0.901 | 0.779 | 0.902 | 0.963 | 0.89 | 0.871 | 0.742 | 0.855 | 0.533 | 0.535 | 0.495 | 0.487 | 0.303
